Columns and labels:
[1] = system: Jurkat human lymphocytes; experiment: Suppression of TNF-α-induced uropod formation in lymphocytes; type: cell-based; settings: FIG. 3 legend; TNF-α 10 ng/mL
Protocol: (§1) FIG. 3. Suppression of TNF-α and PHA-induced human lymphocyte activation by Apoptozole 1. (A) Jurkat human lymphocytes are treated with various concentrations of Apoptozole 1 for 1 h and then are activated by incubation with 10 ng/mL of TNF-α for 1 h to induce uropod formation. The formed uropod is determined by microscopic analysis of groups of cells. (B) Lymphocytes treated with TNF-α (10 ng/mL) for 48 h are incubated with various concentrations of Apoptozole 1 for 24 h. Cell number is measured by CyQuant kit. (C) Jurkat human lymphocytes are incubated with various concentrations of Apoptozole 1 for 1 h and then with 10 μg/mL PHA for 1 h to induce cell aggregation. Cell aggregates are counted in 40× fields of view determined randomly.
(§2) Lymphocyte activation leads to the formation of a uropod in the rear pole during cell polarization and cell proliferation. Jurkat lymphocytes are incubated with various concentrations of Apoptozoles for 1 h and the treated cells are then activated by treatment with TNF-α for 1 h. Apoptozoles reduce the uropod formation induced by TNF-α by 45% in comparison with cells treated only with TNF-α. […]
Jurkat human lymphocytes are seeded in 6-well plates at a density of 10^3 cells/mL in 5% FBS in order to reduce the propensity for spontaneous uropod formation. […] The formed uropod is determined by microscopic analysis of groups of cells.

[2] = system: Jurkat human lymphocytes; experiment: Suppression of PHA-induced homotypic aggregation in lymphocytes; type: cell-based; settings: FIG. 3 legend; PHA 10 μg/mL
Protocol: as §1, §2
For homotypic aggregation studies, lymphocytes are seeded in 6-well plates at a density of 2×10^4 cells/mL and treated with various concentrations (0-100 nM) of Az for 1 h. […] Cell aggregates are counted in 40× fields of view determined randomly.

[3] = system: ΔF508-CFTR in CFPAC-1 cells; experiment: Detection of ΔF508-CFTR expression on the cell membrane (immunostaining without permeabilization); type: cell-based, human; settings: 100 nM, 24 h
Protocol: FIG. 4. Intracellular trafficking of misfolded ΔF508-CFTR by Apoptozole 1. (A) Capan-1 cells expressing normal CFTR display intense fluorescence in a characteristic ring structure that is indicative of cell membrane labeling. (B) CFPAC-1 cells expressing ΔF508-CFTR show little or no fluorescent signal at the cell surface, due to degradation ΔF508-CFTR by interacting with Hsc70 in the proteosome pathway. […] Immunostaining for CFTR is carried out using standard methods without cell permeabilization to allow CFTR detection on the cell surface.
The other embodiment of the present invention provides translocation methods of mutant CFTR (cystic fibrosis transmembrane conductance regulator) to treat cystic fibrosis. Hsc70 assists the degradation of misfolded proteins in the ER (Nature 1996, 381, 571-579 Cell 1998, 92, 351-366 Science 1999, 286, 1888-1893). Cystic fibrosis is a disease caused by removal of mutant CFTR in the ER. The most common mutation of CFTR is the deletion of phenylalanine-508 in CFRT (ΔF508-CFRT). […] When Capan-1 cells are immunostained with anti-CFTR antibody, intense fluorescence is observed in the cell membrane. […]
Capan-1 and CFPAC-1 cells are grown on Permanox slides (Fisher Scientific) for 24 h and treated with 1 mM 4-PBA and 100 nM Az for 24 h. […] The slides were analyzed using a fluorescence microscope (Nikon Eclipse TE2000).

COc1ccc(-c2nc(-c3cc(C(F)(F)F)cc(C(F)(F)F)c3)n(Cc3ccc(C(N)=O)cc3)c2-c2ccc(OC)cc2)cc1 [Apoptozole 1, 4-2-[3,5-bis(trifluoromethyl)phenyl]-4,5-bis(4-methoxphenyl)imidazol-1-yl-methyl-benzamide]
TNF-α-induced human lymphocyte activation [1]: Suppression
PHA-induced human lymphocyte activation [2]: Suppression
expression of ΔF508-CFTR on the cell membrane [3]: inhibits Hsc70-mediated degradation of the ΔF508-CFTR

From US8163791B2, “Imidazole derivatives that induce apoptosis and their therapeutic uses” (Industry-Academic Cooperation Foundation, Yonsei University, priority 2007, dated 2012)
